Results from patent US10618907B2, “Cell-permeable, cell-compatible, and cleavable linkers for covalent tethering of functional elements” (Promega Corporation, priority 2015, dated 2020).
“Also recorded” adds a separate entry of the source.

Tests used:
[1] = system: TNFα secretion in LPS stimulated THP-1 cells; experiment: Inhibition of TNFα secretion in LPS stimulated THP-1 cells (ELISA); format: cell-based, human; settings: 2 h compound, LPS 250 ng/ml 24 h
Protocol: Bioactivity was measured through inhibition of TNFα secretion in LPS stimulated THP-1 cells (FIGS. 8A-8C). THP-1 cells were plated into wells of 96-well plates at 100,000 cells/well, treated with serial dilutions of BIRB796 conjugates for 2 hours, and then stimulated for 24 hours with LPS (Sigma) at final concentration of 250 ng/ml. The supernatant was analyzed for human TNFα secretion by ELISA (R&D Systems). […] Thus, it imposes minimal impact on the chloroalkane features.
Inhibition of mitogen-activated protein kinases (MAPK) by BIRB796 reduces production of proinflammatory cytokines such as TNFα. Influence of the linkers on BIRB796 potency was tested by comparing the BIRB796 conjugates for inhibition of TNFα secretion from LPS-stimulated THP-1 cells (FIG. 32). THP-1 cells were plated in 96-well plates at 100,000 cells/well, treated with serial dilutions of BIRB796 (Cayman Chemical) and BIRB796-chloroalkane conjugates for 2 h, and then stimulated with LPS (Sigma) at final concentration of 250 ng mL−1 for 24 h. Supernatants were analyzed for human TNFα secretion by ELISA (R&D systems). Results indicates inverse correlation between the length of the cleavable chloroalkane linker and its influence on BIRB796 potency.

[2] = system: HALOTAG protein; settings: 1 μM conjugate, up to 60 min, lysate of cells expressing HALOTAG fusion
Protocol: The 4 BIRB* conjugates were compared for binding kinetics to a HALOTAG protein in a cell lysate or inside live cells. Binding kinetics to HALOTAG in lysate was measured by adding the BIRB*-chloroalkane conjugates to a lysate prepared from cells expressing a HALOTAG fusion protein at a final concentration of 1 μM. After 0-60 minutes incubation, a fraction of each reaction taken at different time points (each containing a different BIRB* conjugate) was removed, HALGOTAG TMR-fluorescent ligand (Promega Corporation) was added to a final concentration of 1 μM and allowed to bind to the HALOTAG protein (which remained unbound). The time point fractions were resolved on SDS-PAGE and scanned on a Typhoon 9400 fluorescent imager (GE Healthcare). Bands were quantitated using IMAGEQUANT (GE Healthcare), and binding kinetics were determined as the percent binding with time relative to time zero when no chloroalkylated compound was added.
Binding kinetics to HALOTAG in lysate (FIG. 23A) was measured by treating a lysate prepared from cells, expressing a HALOTAG fusion protein, with the Ibrutinib chloroalkane conjugates at a final concentration of 1 μM for up 60 minutes. After a specified incubation time, an aliquot was removed and treated with HALOTAG TMR-fluorescent ligand (Promega Corporation) at a final concentration of 1 μM to label the remaining unbound HALOTAG fusion protein. The aliquots were resolved on SDS-PAGE and scanned on a Typhoon 9400 fluorescent imager (GE Healthcare). Bands were quantitated using IMAGEQUANT (GE Healthcare), and binding kinetics was determined as the percent binding over time relative to time zero when no chloroalkane-tagged compound added.
Binding kinetics to HALOTAG in lysate (FIG. 31A) were measured by treating a lysate prepared from cells expressing a HALOTAG fusion protein with the BIRB796 chloroalkane conjugates at a final concentration of 1 μM for up to 60 minutes. After a specified incubation time, an aliquot was removed and treated with HALOTAG TMR-fluorescent ligand (Promega Corporation) at a final concentration of 1 μM to label the remaining unbound HALOTAG fusion protein. The aliquots were resolved on SDS-PAGE and scanned on a Typhoon 9400 fluorescent imager (GE Healthcare). Bands were quantitated using IMAGEQUANT (GE Healthcare), and binding kinetics was determined as the percent binding over time relative to time zero where no chloroalkane-tagged compound was added.

[3] = biological target: T1, BTK:NLuc fusion (Homo sapiens, UniProt Q06187); experiment: Capture efficiency of BTK:NLuc fusion onto HALOTAG coated magnetic beads; format: binding; settings: cell lysate, 1 μM conjugate, 2 hour
T1 construct: expressed in transfected cells
T1 sequence (Q06187 whole entry, species assumed, the tested form may be a part): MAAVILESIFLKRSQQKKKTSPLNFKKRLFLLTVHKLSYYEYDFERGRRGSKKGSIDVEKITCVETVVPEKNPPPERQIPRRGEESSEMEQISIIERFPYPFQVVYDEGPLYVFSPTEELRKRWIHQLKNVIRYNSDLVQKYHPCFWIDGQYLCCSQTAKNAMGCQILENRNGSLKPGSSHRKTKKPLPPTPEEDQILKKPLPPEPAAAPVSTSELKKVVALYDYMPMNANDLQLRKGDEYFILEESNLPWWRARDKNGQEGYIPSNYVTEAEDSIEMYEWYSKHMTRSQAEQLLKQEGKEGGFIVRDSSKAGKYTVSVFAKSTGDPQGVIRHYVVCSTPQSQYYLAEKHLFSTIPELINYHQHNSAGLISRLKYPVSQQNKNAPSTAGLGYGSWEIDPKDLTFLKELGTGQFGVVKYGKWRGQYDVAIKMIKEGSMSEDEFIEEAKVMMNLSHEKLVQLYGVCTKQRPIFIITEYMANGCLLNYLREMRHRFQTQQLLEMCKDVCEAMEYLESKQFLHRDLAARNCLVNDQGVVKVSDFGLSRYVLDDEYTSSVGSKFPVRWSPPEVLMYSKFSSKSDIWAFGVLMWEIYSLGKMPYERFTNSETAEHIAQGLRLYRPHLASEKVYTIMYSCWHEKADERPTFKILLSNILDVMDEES
Protocol: To interrogate capture efficiency of an interacting cellular target, a known target of Ibrutinib, BTK, was genetically fused to NANOLUC (NLuc) luciferase reporter (Promega Corporation). Since Ibrutinib is a covalent inhibitor of BKT, a TEV recognition site was incorporated between BTK and NLuc to allow proteolytic release of NLuc from the beads. Following a 2 hour treatment of cell lysate (from cells expressing the BTK:NLuc fusion) with 1 μM Ibrutinib chloroalkane conjugates (final concentration), the Ibrutinib chloroalkane conjugates, and their interacting BTK:NLuc target, were captured onto HALOTAG coated magnetic beads (Promega Corporation). Capture efficiency was determined as the percent of lost in bioluminescence in the unbound fractions relative to the untreated cell lysate.

[4] = biological target: T1, BTK:NLuc fusion; experiment: Release of captured BTK:NLuc from HALOTAG beads by TEV or palladium-catalyzed cleavage, western; settings: anti-NLuc antibody
Protocol: To interrogate the efficiency of palladium-catalyzed cleavage of these linkers, the release of BTK:NLuc fusion covalently captured onto the HALOTAG beads was determined by two methods: i) TEV proteolytic cleavage and ii) palladium-catalyzed cleavage (FIG.
24B). TEV proteolytic cleavage of the fusion would lead to the release of NLuc while palladium catalyzed cleavage of the allyl carbamate group within the chloroalkane linker would result with the release of BTK:NLuc.

[5] = biological target: purified ABL1 (Homo sapiens, UniProt P00519); experiment: Inhibition of purified ABL1 by ponatinib conjugates; format: biochemical
purified ABL1, sequence (P00519 whole entry, species assumed): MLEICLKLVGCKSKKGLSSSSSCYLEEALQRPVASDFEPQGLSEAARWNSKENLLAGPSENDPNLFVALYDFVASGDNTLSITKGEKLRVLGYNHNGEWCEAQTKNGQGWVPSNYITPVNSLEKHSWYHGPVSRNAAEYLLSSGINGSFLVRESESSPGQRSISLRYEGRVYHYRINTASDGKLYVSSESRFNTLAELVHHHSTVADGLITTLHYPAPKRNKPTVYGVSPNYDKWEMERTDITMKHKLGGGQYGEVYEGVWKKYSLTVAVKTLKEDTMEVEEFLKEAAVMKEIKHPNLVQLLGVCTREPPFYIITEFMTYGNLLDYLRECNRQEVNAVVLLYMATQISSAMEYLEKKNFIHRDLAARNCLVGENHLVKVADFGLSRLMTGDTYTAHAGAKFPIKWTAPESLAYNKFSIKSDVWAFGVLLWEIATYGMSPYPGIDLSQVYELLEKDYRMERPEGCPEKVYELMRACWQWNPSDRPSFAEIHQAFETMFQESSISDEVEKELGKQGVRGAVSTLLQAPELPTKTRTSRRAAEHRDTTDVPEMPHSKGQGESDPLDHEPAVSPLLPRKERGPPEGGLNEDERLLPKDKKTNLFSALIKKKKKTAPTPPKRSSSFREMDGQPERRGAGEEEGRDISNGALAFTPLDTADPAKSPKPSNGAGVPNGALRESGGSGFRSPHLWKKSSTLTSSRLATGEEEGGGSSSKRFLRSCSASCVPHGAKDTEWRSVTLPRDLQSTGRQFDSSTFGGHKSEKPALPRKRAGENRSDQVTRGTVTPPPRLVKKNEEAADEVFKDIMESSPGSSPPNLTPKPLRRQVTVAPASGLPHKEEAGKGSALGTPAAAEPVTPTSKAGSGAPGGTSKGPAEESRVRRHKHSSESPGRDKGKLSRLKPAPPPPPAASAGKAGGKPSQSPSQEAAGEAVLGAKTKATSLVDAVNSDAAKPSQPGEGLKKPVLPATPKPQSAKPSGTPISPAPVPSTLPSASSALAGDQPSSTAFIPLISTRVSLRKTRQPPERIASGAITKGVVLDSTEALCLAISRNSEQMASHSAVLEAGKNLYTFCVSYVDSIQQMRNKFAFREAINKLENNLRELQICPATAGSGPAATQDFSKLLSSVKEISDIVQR
Description: (§1) Two additional linkers were generated, one where the three other carbamates were replaced with amides, and the other where the two allyl carbamate groups were replaced with allyl ether linkages. […] The linkers were compared for their influence on binding to HALOTAG and ABL1 in biochemical and cellular assays.

[6] = system: STATS reporter expression; experiment: In-cell inhibition of STATS reporter expression by ponatinib conjugates; format: cell-based; settings: cellular assay
Description: as §1, with “CA-T4E contains 4 carbamate groups, one of them essential for rapid binding kinetics to HALOTAG. Two” for “Two”

[7] = system: HALOTAG protein; settings: 10 μM conjugate, up to 90-120 min, live cells expressing HALOTAG
Protocol: Binding kinetics to HALOTAG inside cells was measured by treating live cells expressing a HALOTAG protein with the BIRB* chloroalkane conjugates at a final concentration of 10 μM. After 0-120 minutes incubation time points, the medium was replaced with medium containing 5 μM HALOTAG TMR-fluorescent ligand, and the cells were incubated for additional 15 minutes allowing the TMR-fluorescent ligand to bind to the HALOTAG protein (which remained unbound). After the media was removed, the cells were lysed with a detergent lysis buffer, and the time points were analyzed as described above.
Both conjugates were compared for binding kinetics to HALOTAG inside live cells and for bioactivity. Binding kinetics to HALOTAG inside cells was measured by treating live cells expressing a HALOTAG protein with the BIRB796 chloroalkane conjugates at a final concentration of 10 μM. […] Bands were quantitated, and the binding kinetics were determined as the percent binding with time relative to time zero when no chloroalkylated compound was added.
Binding kinetics to HALOTAG inside cells (FIG. 23B) was measured by treating live cells, expressing a HALOTAG fusion protein, with the Ibrutinib chloroalkane conjugates at a final concentration of 10 μM for up to 90 minutes. […] Cells were then lysed with a detergent lysis buffer, and the samples at the various time points were analyzed as described above. […]

Row | SMILES | binding kinetics to HALOTAG in lysate [2] | capture efficiency of BTK:NLuc [3] | other results
1 | CC(C)(C)c1cc(NC(=O)Nc2ccc(OCCN3CCOCC3)c3ccccc23)n(-c2cccc(CNC(=O)OCCOCCOCCNC(=O)OC/C=C/COC(=O)NCCOCCOCCOC(=O)NCCOCCOCCCCCCCl)c2)n1 [BIRB796-CA-T4E] | faster binding to HALOTAG than respective linkers with a cis-double bond; also recorded: most similar to the non-cleavable linker CA-T1 | – | inhibition of TNFα secretion (potency) [1]: potency similar to non-cleavable linker CA-T1
2 | Nc1ncnc2c1c(-c1ccc(Oc3ccccc3)cc1)nn2[C@@H]1CCCN(C(=O)/C=C/CNC(=O)OC/C=C\COC(=O)NCCOCCOCCCCCCCl)C1 [PBI-6041] | lower binding kinetics to HALOTAG | reduced capture efficiency relative to PBI-6040 | release of NLuc by TEV proteolytic cleavage [4]: lower release
3 | CC(C)(C)c1cc(NC(=O)Nc2ccc(OCCN3CCOCC3)c3ccccc23)n(-c2cccc(CNC(=O)OC/C=C\COC(=O)NCCOCCOCCCCCCCl)c2)n1 [CA-T0] | lower binding kinetics to HALOTAG | – | –
4 | CC(C)(C)c1cc(NC(=O)Nc2ccc(OCCN3CCOCC3)c3ccccc23)n(-c2cccc(CNC(=O)OC/C=C/COC(=O)NCCOCCOCCOC(=O)NCCOCCOCCCCCCCl)c2)n1 [CA-T3E] | faster binding to HALOTAG than respective linkers with a cis-double bond | – | –
5 | CC(C)(C)c1cc(NC(=O)Nc2ccc(OCCN3CCOCC3)c3ccccc23)n(-c2cccc(CNC(=O)OCCOCCOCCNC(=O)OC/C=C\COC(=O)NCCOCCOCCOC(=O)NCCOCCOCCCCCCCl)c2)n1 [CA-T4Z] | – | – | inhibition of TNFα secretion (potency) [1]: potency similar to non-cleavable linker CA-T1
6 | Nc1ncnc2c1c(-c1ccc(Oc3ccccc3)cc1)nn2[C@@H]1CCCN(C(=O)/C=C/CNC(=O)OC/C=C/COCCOC(=O)NCCOCCOCCCCCCCl)C1 [PBI-6027] | – | reduced capture efficiency relative to PBI-6040 | –
7 | Nc1ncnc2c1c(-c1ccc(Oc3ccccc3)cc1)nn2[C@@H]1CCCN(C(=O)/C=C/CNC(=O)OC/C=C\COC(=O)NCCOCCOCCOC(=O)NCCOCCOCCCCCCCl)C1 [PBI-6030] | – | did not interfere with capture efficiency | –
8 | Nc1ncnc2c1c(-c1ccc(Oc3ccccc3)cc1)nn2[C@@H]1CCCN(C(=O)/C=C/CNC(=O)OC/C=C/COC(=O)NCCOCCOCCOC(=O)NCCOCCOCCCCCCCl)C1 [PBI-6029] | – | did not interfere with capture efficiency | –
9 | Cc1ccc(C(=O)Nc2ccc(CN3CCN(CCCNC(=O)CCOCCOCCC(=O)NC/C=C/CNC(=O)CCOCCOCCOC(=O)NCCOCCOCCCCCCCl)CC3)c(C(F)(F)F)c2)cc1C#Cc1cnc2cccnn12 [ponatinib-tri-amide] | – | – | inhibition of purified ABL1 [5]: comparable inhibition of purified ABL1; decrease of ponatinib potency relative to CA-T4E and all PEG linkers [6]: 20 fold; binding kinetics to HALOTAG inside live cells (cellular permeability) [7]: reduced binding kinetics to intracellular HALOTAG
10 | Nc1ncnc2c1c(-c1ccc(Oc3ccccc3)cc1)nn2[C@@H]1CCCN(C(=O)/C=C/CNC(=O)OC/C=C\COCCOC(=O)NCCOCCOCCCCCCCl)C1 [PBI-6025] | – | reduced capture efficiency relative to PBI-6040 | –
11 | CC(C)(C)c1cc(NC(=O)Nc2ccc(OCCN3CCOCC3)c3ccccc23)n(-c2cccc(CNC(=O)OC/C=C/COCCOC(=O)NCCOCCOCCCCCCCl)c2)n1 [CA-T2E] | faster binding to HALOTAG than respective linkers with a cis-double bond | – | –
